Non-standard residues stand in square brackets, D forms with d. Residues, ends and D or L forms follow the SMILES beside them. *: point of attachment. Arg(Me2a) = CN(C)C(=N)NCCC[C@H](N)C(=O)O; Arg(Me2s) = CN=C(NC)NCCC[C@H](N)C(=O)O; Nva(4-oxo) = CC(=O)C[C@H](N)C(=O)O; 2Pal = N[C@@H](Cc1ccccn1)C(=O)O; 3Pal = N[C@@H](Cc1cccnc1)C(=O)O; 4Pal = N[C@@H](Cc1ccncc1)C(=O)O; Tos = Cc1ccc(S(=O)(=O)*)cc1; Dab = NCC[C@H](N)C(=O)O; Nva = CCC[C@H](N)C(=O)O

One test concerns the target T1, Neuropeptide S receptor (Mus musculus, UniProt Q8BZP8).
T1 sequence (Q8BZP8 whole entry): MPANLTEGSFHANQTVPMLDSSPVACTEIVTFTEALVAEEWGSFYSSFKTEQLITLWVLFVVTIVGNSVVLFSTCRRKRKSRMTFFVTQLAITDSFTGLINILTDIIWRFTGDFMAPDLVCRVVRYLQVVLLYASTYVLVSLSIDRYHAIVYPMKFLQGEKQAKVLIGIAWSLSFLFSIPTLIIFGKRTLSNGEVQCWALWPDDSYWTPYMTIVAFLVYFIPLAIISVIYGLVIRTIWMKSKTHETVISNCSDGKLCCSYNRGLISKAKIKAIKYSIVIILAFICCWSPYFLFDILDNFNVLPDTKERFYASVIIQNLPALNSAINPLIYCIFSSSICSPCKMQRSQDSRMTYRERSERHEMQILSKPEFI
As to the kind of experiment: Agonist activity at mouse NPSR expressed in HEK293 cells assessed as increase in intracellular calcium mobilization by FLIPR. Format: functional, cell-based.
For the compound `CSCC[C@H](NC(=O)CNC(=O)[C@@H](NC(=O)CNC(=O)[C@@H](NC(=O)CNC(=O)[C@H](CC(N)=O)NC(=O)[C@H](CCCNC(=N)N(C)C)NC(=O)[C@H](Cc1ccccc1)NC(=O)[C@@H](N)CO)C(C)C)[C@@H](C)O)C(=O)N[C@@H](CCCCN)C(=O)N[C@@H](CCCCN)C(=O)N[C@H](C(=O)N[C@@H](CO)C(=O)N[C@@H](Cc1ccccc1)C(=O)N[C@@H](CCC(N)=O)C(=O)N[C@@H](CCCNC(=N)N)C(=O)N[C@@H](C)C(=O)N[C@@H](CCCCN)C(=O)N[C@@H](CO)C(=O)O)[C@@H](C)O` (H-SF[Arg(Me2a)]NGVGTGMKKTSFQRAKS-OH), the EC50 was 22.4 nM. On the same count and under the same terms, in the case of `C/N=C(/NC)NCCC[C@H](NC(=O)[C@H](Cc1ccccc1)NC(=O)[C@@H](N)CO)C(=O)N[C@@H](CC(N)=O)C(=O)NCC(=O)N[C@H](C(=O)NCC(=O)N[C@H](C(=O)NCC(=O)N[C@@H](CCSC)C(=O)N[C@@H](CCCCN)C(=O)N[C@@H](CCCCN)C(=O)N[C@H](C(=O)N[C@@H](CO)C(=O)N[C@@H](Cc1ccccc1)C(=O)N[C@@H](CCC(N)=O)C(=O)N[C@@H](CCCNC(=N)N)C(=O)N[C@@H](C)C(=O)N[C@@H](CCCCN)C(=O)N[C@@H](CO)C(=O)O)[C@@H](C)O)[C@@H](C)O)C(C)C` (H-SF[Arg(Me2s)]NGVGTGMKKTSFQRAKS-OH) it was 31.6 nM.

The next test deals with T2, Neuropeptide S receptor (Mus musculus) (UniProt Q8BZP8).
T2 sequence (whole entry): T1 sequence (Q8BZP8 whole entry)
As to the kind of experiment: Agonist activity at mouse NPSR expressed in HEK293 cells assessed as increase in intracellular calcium mobilization at 10 uM by FLIPR. The test is classed as functional, cell-based.
For `CSCC[C@H](NC(=O)CNC(=O)[C@@H](NC(=O)CNC(=O)[C@@H](NC(=O)CNC(=O)[C@H](CC(N)=O)NC(=O)[C@H](CCCNC(=N)NS(=O)(=O)c1ccc(C)cc1)NC(=O)[C@H](Cc1ccccc1)NC(=O)[C@@H](N)CO)C(C)C)[C@@H](C)O)C(=O)N[C@@H](CCCCN)C(=O)N[C@@H](CCCCN)C(=O)N[C@H](C(=O)N[C@@H](CO)C(=O)N[C@@H](Cc1ccccc1)C(=O)N[C@@H](CCC(N)=O)C(=O)N[C@@H](CCCNC(=N)N)C(=O)N[C@@H](C)C(=O)N[C@@H](CCCCN)C(=O)N[C@@H](CO)C(=O)O)[C@@H](C)O` (H-SFR(Tos)NGVGTGMKKTSFQRAKS-OH), the Activity was 104%. On the same count and under the same terms, the result for `CNC(=O)C[C@H](NC(=O)[C@H](CCCNC(=N)N)NC(=O)[C@H](Cc1ccccc1)NC(=O)[C@@H](N)CO)C(=O)NCC(=O)N[C@H](C(=O)NCC(=O)N[C@H](C(=O)NCC(=O)N[C@@H](CCSC)C(=O)N[C@@H](CCCCN)C(=O)N[C@@H](CCCCN)C(=O)N[C@H](C(=O)N[C@@H](CO)C(=O)N[C@@H](Cc1ccccc1)C(=O)N[C@@H](CCC(N)=O)C(=O)N[C@@H](CCCNC(=N)N)C(=O)N[C@@H](C)C(=O)N[C@@H](CCCCN)C(=O)N[C@@H](CO)C(=O)O)[C@@H](C)O)[C@@H](C)O)C(C)C` (H-SFRD(NHMe)GVGTGMKKTSFQRAKS-OH) reads 188%; that for `CSCC[C@H](NC(=O)CNC(=O)[C@@H](NC(=O)CNC(=O)[C@@H](NC(=O)CNC(=O)[C@H](CC(=O)N(C)C)NC(=O)[C@H](CCCNC(=N)N)NC(=O)[C@H](Cc1ccccc1)NC(=O)[C@@H](N)CO)C(C)C)[C@@H](C)O)C(=O)N[C@@H](CCCCN)C(=O)N[C@@H](CCCCN)C(=O)N[C@H](C(=O)N[C@@H](CO)C(=O)N[C@@H](Cc1ccccc1)C(=O)N[C@@H](CCC(N)=O)C(=O)N[C@@H](CCCNC(=N)N)C(=O)N[C@@H](C)C(=O)N[C@@H](CCCCN)C(=O)N[C@@H](CO)C(=O)O)[C@@H](C)O` (H-SFRD(NMe2)GVGTGMKKTSFQRAKS-OH), 89%. Same read-out and setting: the result for `CSCC[C@H](NC(=O)CNC(=O)[C@@H](NC(=O)CNC(=O)[C@@H](NC(=O)CNC(=O)[C@H](CCN)NC(=O)[C@H](CCCNC(=N)N)NC(=O)[C@H](Cc1ccccc1)NC(=O)[C@@H](N)CO)C(C)C)[C@@H](C)O)C(=O)N[C@@H](CCCCN)C(=O)N[C@@H](CCCCN)C(=O)N[C@H](C(=O)N[C@@H](CO)C(=O)N[C@@H](Cc1ccccc1)C(=O)N[C@@H](CCC(N)=O)C(=O)N[C@@H](CCCNC(=N)N)C(=O)N[C@@H](C)C(=O)N[C@@H](CCCCN)C(=O)N[C@@H](CO)C(=O)O)[C@@H](C)O` (H-SFR[Dab]GVGTGMKKTSFQRAKS-OH) reads 169%; that for `CSCC[C@H](NC(=O)CNC(=O)[C@@H](NC(=O)CNC(=O)[C@@H](NC(=O)CNC(=O)[C@H](CC(C)=O)NC(=O)[C@H](CCCNC(=N)N)NC(=O)[C@H](Cc1ccccc1)NC(=O)[C@@H](N)CO)C(C)C)[C@@H](C)O)C(=O)N[C@@H](CCCCN)C(=O)N[C@@H](CCCCN)C(=O)N[C@H](C(=O)N[C@@H](CO)C(=O)N[C@@H](Cc1ccccc1)C(=O)N[C@@H](CCC(N)=O)C(=O)N[C@@H](CCCNC(=N)N)C(=O)N[C@@H](C)C(=O)N[C@@H](CCCCN)C(=O)N[C@@H](CO)C(=O)O)[C@@H](C)O` (H-SFR[Nva(4-oxo)]GVGTGMKKTSFQRAKS-OH), 136%. Still for that read-out and setting: in the case of `CCC[C@H](NC(=O)[C@H](CCCNC(=N)N)NC(=O)[C@H](Cc1ccccc1)NC(=O)[C@@H](N)CO)C(=O)NCC(=O)N[C@H](C(=O)NCC(=O)N[C@H](C(=O)NCC(=O)N[C@@H](CCSC)C(=O)N[C@@H](CCCCN)C(=O)N[C@@H](CCCCN)C(=O)N[C@H](C(=O)N[C@@H](CO)C(=O)N[C@@H](Cc1ccccc1)C(=O)N[C@@H](CCC(N)=O)C(=O)N[C@@H](CCCNC(=N)N)C(=O)N[C@@H](C)C(=O)N[C@@H](CCCCN)C(=O)N[C@@H](CO)C(=O)O)[C@@H](C)O)[C@@H](C)O)C(C)C` (H-SFR[Nva]GVGTGMKKTSFQRAKS-OH) it was 240%.

With `CSCC[C@H](NC(=O)CNC(=O)[C@@H](NC(=O)CNC(=O)[C@@H](NC(=O)CNC(=O)[C@H](CC(N)=O)NC(=O)[C@H](Cc1ccccn1)NC(=O)[C@H](Cc1ccccc1)NC(=O)[C@@H](N)CO)C(C)C)[C@@H](C)O)C(=O)N[C@@H](CCCCN)C(=O)N[C@@H](CCCCN)C(=O)N[C@H](C(=O)N[C@@H](CO)C(=O)N[C@@H](Cc1ccccc1)C(=O)N[C@@H](CCC(N)=O)C(=O)N[C@@H](CCCNC(=N)N)C(=O)N[C@@H](C)C(=O)N[C@@H](CCCCN)C(=O)N[C@@H](CO)C(=O)O)[C@@H](C)O` (H-SF[2Pal]NGVGTGMKKTSFQRAKS-OH), the Activity was determined as 19%. Still for that read-out and setting: the result for `CSCC[C@H](NC(=O)CNC(=O)[C@@H](NC(=O)CNC(=O)[C@@H](NC(=O)CNC(=O)[C@H](CC(N)=O)NC(=O)[C@H](Cc1cccnc1)NC(=O)[C@H](Cc1ccccc1)NC(=O)[C@@H](N)CO)C(C)C)[C@@H](C)O)C(=O)N[C@@H](CCCCN)C(=O)N[C@@H](CCCCN)C(=O)N[C@H](C(=O)N[C@@H](CO)C(=O)N[C@@H](Cc1ccccc1)C(=O)N[C@@H](CCC(N)=O)C(=O)N[C@@H](CCCNC(=N)N)C(=O)N[C@@H](C)C(=O)N[C@@H](CCCCN)C(=O)N[C@@H](CO)C(=O)O)[C@@H](C)O` (H-SF[3Pal]NGVGTGMKKTSFQRAKS-OH) reads 42%; that for `CSCC[C@H](NC(=O)CNC(=O)[C@@H](NC(=O)CNC(=O)[C@@H](NC(=O)CNC(=O)[C@H](CC(N)=O)NC(=O)[C@H](Cc1ccncc1)NC(=O)[C@H](Cc1ccccc1)NC(=O)[C@@H](N)CO)C(C)C)[C@@H](C)O)C(=O)N[C@@H](CCCCN)C(=O)N[C@@H](CCCCN)C(=O)N[C@H](C(=O)N[C@@H](CO)C(=O)N[C@@H](Cc1ccccc1)C(=O)N[C@@H](CCC(N)=O)C(=O)N[C@@H](CCCNC(=N)N)C(=O)N[C@@H](C)C(=O)N[C@@H](CCCCN)C(=O)N[C@@H](CO)C(=O)O)[C@@H](C)O` (H-SF[4Pal]NGVGTGMKKTSFQRAKS-OH), 154%. Still for that read-out and setting: in the case of H-SFDNGVGTGMKKTSFQRAKS-OH it was 73%; in that of H-SFENGVGTGMKKTSFQRAKS-OH, 89%. Still for that read-out and setting: in the case of H-SFFNGVGTGMKKTSFQRAKS-OH it was 46%; in that of H-SFLNGVGTGMKKTSFQRAKS-OH, 36%. As to H-SFNNGVGTGMKKTSFQRAKS-OH, the Activity amounted to 161%. The same measure, in the same setting: the result for H-SFRDGVGTGMKKTSFQRAKS-OH reads 146%.
